Drawing on PubChem BioAssay (NCI), this text covers TGI for nine compounds.

Some test systems named below: OVCAR-8 ovarian; ACHN renal; HT29 colon; DU-145 prostate; NCI-H460 lung; SN12C renal; MDA-MB-435; 786-0 renal; SK-MEL-28 melanoma; NCI-H522 lung; CAKI-1 renal; UACC-257 melanoma; MDA-MB-231 breast; NCI-H226 lung; HCT-15 colon; A498 renal; BT-549 breast; SK-OV-3 ovarian; SR leukemia; T-47D breast.
Experiment in all cases: inhibition of tumour cell growth, NCI panel, 48 h

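Step 1: Grow cells in 96-well plates. Step 2: Expose to compound for 48 hours at 5 concentrations. Step 3: Interpolate endpoints linearly; if unreached, use highest concentration. TGI: total growth inhibition.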 A value given as a limit tells only on which side of the number the result lay.

In the case of `O=C1c2ccccc2/C=C\C(c2ccccc2)=N/N1c1ccccc1Cl`, the TGI was over 100 µM in the test on OVCAR-8 ovarian; over 100 µM in the test with ACHN renal; 37 µM with HT29 colon; over 100 µM in the test with DU-145 prostate; over 100 µM with NCI-H460 lung; over 100 µM with SN12C renal. Also, the TGI with MDA-MB-435 is 16.8 µM; in the test with 786-0 renal, over 100 µM; in the test with SK-MEL-28 melanoma it was over 100 µM; in the test on NCI-H522 lung, 35.8 µM; with CAKI-1 renal, 54.5 µM; with UACC-257 melanoma, 90.5 µM. Further, the TGI with MDA-MB-231 breast is 49.2 µM; in the test on NCI-H226 lung, over 100 µM; with HCT-15 colon it was over 100 µM; in the test with A498 renal it was 71.9 µM; in the test with BT-549 breast, 28 µM.

For `CSc1nc(C)cc(=O)n1C1OC(COC(C)=O)C(OC(C)=O)C(OC(C)=O)C1OC(C)=O` (stereo not drawn), the TGI in the test with OVCAR-8 ovarian, in the test with ACHN renal, in the test on HT29 colon, in the test with NCI-H460 lung, in the test on SN12C renal and in the test with 786-0 renal was over 100 µM each time. In addition, the TGI in the test with SK-MEL-28 melanoma, in the test on NCI-H522 lung, with UACC-257 melanoma, with SK-OV-3 ovarian, with NCI-H226 lung and in the test with HCT-15 colon was over 100 µM in each case. The TGI in the test with A498 renal and in the test with SR leukemia was over 100 µM each time.

In the case of `CCN(CC)C(=S)S`, the TGI in the test with OVCAR-8 ovarian was over 100 µM; with ACHN renal, over 100 µM; with SN12C renal, over 100 µM; in the test with 786-0 renal, over 100 µM; in the test on SK-MEL-28 melanoma it was over 84.6 µM; in the test on NCI-H522 lung, 0.362 µM. Besides, the TGI in the test with UACC-257 melanoma was 65.1 µM; in the test on SK-OV-3 ovarian, over 100 µM; in the test on NCI-H226 lung it was over 100 µM; in the test on HCT-15 colon, over 100 µM; with A498 renal, over 100 µM.

Regarding `C=CCCCCCCCCC(=O)ON(Cc1ccc(O)c(OC)c1)C(=O)C(F)(F)F`, the TGI with OVCAR-8 ovarian, in the test with ACHN renal, in the test on HT29 colon, with DU-145 prostate, with NCI-H460 lung and in the test on SN12C renal was over 100 µM throughout. For the same compound, the TGI in the test with MDA-MB-435, in the test on 786-0 renal, with SK-MEL-28 melanoma, in the test on UACC-257 melanoma, in the test on SK-OV-3 ovarian and in the test on T-47D breast was over 100 µM each time. Besides, the TGI in the test with MDA-MB-231 breast, with NCI-H226 lung, in the test with HCT-15 colon, in the test with A498 renal and with SR leukemia was over 100 µM each time.

As for `O[C@]12c3ccccc3C1CCCCC2N1CCOCC1` (stereo partly drawn), the TGI in the test with OVCAR-8 ovarian, in the test with ACHN renal, with HT29 colon, in the test on NCI-H460 lung, in the test on SN12C renal and in the test on 786-0 renal was over 100 µM throughout. Also, the TGI with SK-MEL-28 melanoma, with NCI-H522 lung, in the test on UACC-257 melanoma, in the test on SK-OV-3 ovarian, in the test with NCI-H226 lung and in the test with HCT-15 colon was over 100 µM each time. In the test with SR leukemia, this compound had a TGI of over 100 µM.

Take `C=CC1(O)CCCC=C1COCc1ccccc1` (stereo not drawn): the TGI in the test on OVCAR-8 ovarian, in the test with ACHN renal, in the test with HT29 colon, with DU-145 prostate, in the test with NCI-H460 lung and in the test with SN12C renal was over 100 µM in each case. In addition, the TGI with MDA-MB-435 was over 100 µM; in the test with 786-0 renal, over 100 µM; in the test with SK-MEL-28 melanoma it was over 100 µM; in the test on NCI-H522 lung, 32.4 µM; in the test with CAKI-1 renal, over 100 µM; in the test with UACC-257 melanoma, over 100 µM. Also, the TGI with SK-OV-3 ovarian, in the test with T-47D breast, in the test on MDA-MB-231 breast, with NCI-H226 lung, with HCT-15 colon and with A498 renal was over 100 µM in each case. Further, the TGI with SR leukemia is 57 µM.

As for `O/N=C1\CSc2ccccc2C1`, the TGI in the test on OVCAR-8 ovarian, in the test on ACHN renal, in the test on HT29 colon, with DU-145 prostate, with NCI-H460 lung and with SN12C renal was over 100 µM throughout. Besides, the TGI in the test with MDA-MB-435, with 786-0 renal, in the test with SK-MEL-28 melanoma, with NCI-H522 lung, in the test on CAKI-1 renal and in the test with UACC-257 melanoma was over 100 µM throughout. Moreover, the TGI in the test on SK-OV-3 ovarian, in the test on T-47D breast, with MDA-MB-231 breast, in the test on NCI-H226 lung, in the test on HCT-15 colon and in the test on A498 renal was over 100 µM throughout. The same compound displayed a TGI with SR leukemia of over 100 µM.

For `Nc1ncnc2c1ncn2CCOC(c1ccccc1)P(=O)(O)O` (stereo not drawn), the TGI in the test with OVCAR-8 ovarian, with ACHN renal, with HT29 colon, in the test with NCI-H460 lung, with SN12C renal and in the test on 786-0 renal was over 100 µM each time. The TGI in the test on SK-MEL-28 melanoma, in the test on NCI-H522 lung, with CAKI-1 renal, in the test with UACC-257 melanoma, in the test with SK-OV-3 ovarian and in the test with NCI-H226 lung was over 100 µM in each case. Moreover, the TGI in the test with HCT-15 colon, with A498 renal and in the test on SR leukemia was over 100 µM in each case.

As for `O=C(/C=C/c1cccs1)c1ccc([N+](=O)[O-])cc1`, the TGI in the test with OVCAR-8 ovarian, in the test with ACHN renal, in the test with HT29 colon, in the test with DU-145 prostate, in the test with NCI-H460 lung and in the test with SN12C renal was over 100 µM throughout. Further, the TGI in the test with MDA-MB-435, in the test on 786-0 renal, with SK-MEL-28 melanoma, with CAKI-1 renal, in the test with UACC-257 melanoma and in the test on SK-OV-3 ovarian was over 100 µM each time. For the same compound, the TGI in the test on T-47D breast, with MDA-MB-231 breast, with NCI-H226 lung, in the test with HCT-15 colon, with A498 renal and in the test on SR leukemia was over 100 µM throughout.
